According to ChEMBL document CHEMBL3885861, “Open TG-GATES”:

Organism: Rattus norvegicus
Assay: Open TG-GATES - Regimen: Single
Type: toxicity, organism-based, Sprague-Dawley
Design: regimen Single, gender Male, age 6 weeks
Conditions: in vivo, po, 10 mg/kg, route gavage, dose level Low; for APTT / Bas / Eos / Fbg / Hb / Ht / Lym / MCH / MCHC / MCV / Mono / Neu / PT / Plat / RBC / Ret / WBC: tissue Blood; for KIDNEY_L / KIDNEY_R / KIDNEY_TOTAL: tissue Kidney; for LIVER: tissue Liver; for A/G / ALP / ALT / AST / BUN / CRE / Ca / Cl / DBIL / GLC / IP / K / LDH / Na / PL / RALB / TBIL / TC / TG / TP / gamma-GTP: tissue Plasma

## CCN(CC)N=O [N-NITROSODIETHYLAMINE]
3 h
  TERMINAL_BW: 222.2 g
  APTT: 18.5 s
  Bas: 0.4%
  Eos: 0.8%
  Fbg: 221.2 mg/dL
  Hb: 13.4 g/dL
  Ht: 39.5%
  Lym: 74.8%
  MCH: 21.3 pg
  MCHC: 33.9%
  MCV: 62.8 fL
  Mono: 2.2%
  Neu: 21.2%
  PT: 12.3 s
  Plat: 120.1 x10_4/uL
  RBC: 629.8 x10_4/ul
  Ret: 7.4%
  WBC: 85.8 x10_2/uL
  KIDNEY_L: 1 g
  KIDNEY_R: 1 g
  KIDNEY_TOTAL: 2 g
  LIVER: 9.3 g
  A/G: 1.7
  ALP: 906.2 IU/L
  ALT: 45 IU/L
  AST: 74.4 IU/L
  BUN: 10.8 mg/dL
  CRE: 0.4 mg/dL
  Ca: 10.2 mg/dL
  Cl: 103 meq/L
  DBIL: 0.062 mg/dL
  GLC: 190.2 mg/dL
  IP: 8.8 mg/dL
  K: 3.6 meq/L
  LDH: 194 IU/L
  Na: 141.2 meq/L
  PL: 123.4 mg/dL
  RALB: 3.4 g/dL
  TBIL: 0.1 mg/dL
  TC: 77.4 mg/dL
  TG: 34 mg/dL
  TP: 5.4 g/dL
  gamma-GTP: 1 IU/L
6 h
  TERMINAL_BW: 226.2 g
  APTT: 18.6 s
  Bas: 0.6%
  Eos: 1%
  Fbg: 235 mg/dL
  Hb: 13.3 g/dL
  Ht: 39.1%
  Lym: 78%
  MCH: 20.7 pg
  MCHC: 34%
  MCV: 60.9 fL
  Mono: 2.4%
  Neu: 17.4%
  PT: 12.1 s
  Plat: 127.1 x10_4/uL
  RBC: 642.4 x10_4/ul
  Ret: 6.1%
  WBC: 90.2 x10_2/uL
  KIDNEY_L: 1 g
  KIDNEY_R: 1 g
  KIDNEY_TOTAL: 2 g
  LIVER: 10.3 g
  A/G: 1.5
  ALP: 923.4 IU/L
  ALT: 39 IU/L
  AST: 69 IU/L
  BUN: 14.2 mg/dL
  CRE: 0.4 mg/dL
  Ca: 10.4 mg/dL
  Cl: 103.2 meq/L
  DBIL: 0.078 mg/dL
  GLC: 199.2 mg/dL
  IP: 7.6 mg/dL
  K: 3.7 meq/L
  LDH: 220.8 IU/L
  Na: 140.6 meq/L
  PL: 144 mg/dL
  RALB: 3.3 g/dL
  TBIL: 0.1 mg/dL
  TC: 81 mg/dL
  TG: 62.6 mg/dL
  TP: 5.6 g/dL
  gamma-GTP: 1.2 IU/L
9 h
  TERMINAL_BW: 226.3 g
  APTT: 18.1 s
  Bas: 0.8%
  Eos: 1%
  Fbg: 222.4 mg/dL
  Hb: 14 g/dL
  Ht: 40.2%
  Lym: 80.6%
  MCH: 21.7 pg
  MCHC: 34.8%
  MCV: 62.1 fL
  Mono: 2.4%
  Neu: 14.4%
  PT: 12.2 s
  Plat: 123.8 x10_4/uL
  RBC: 647 x10_4/ul
  Ret: 6.7%
  WBC: 100.3 x10_2/uL
  KIDNEY_L: 0.9 g
  KIDNEY_R: 1 g
  KIDNEY_TOTAL: 1.9 g
  LIVER: 10.3 g
  A/G: 1.6
  ALP: 1025.2 IU/L
  ALT: 38.6 IU/L
  AST: 67.2 IU/L
  BUN: 14.4 mg/dL
  CRE: 0.4 mg/dL
  Ca: 10.7 mg/dL
  Cl: 103.2 meq/L
  DBIL: 0.09 mg/dL
  GLC: 188.4 mg/dL
  IP: 8.3 mg/dL
  K: 3.9 meq/L
  LDH: 169.8 IU/L
  Na: 141.4 meq/L
  PL: 141.4 mg/dL
  RALB: 3.5 g/dL
  TBIL: 0.1 mg/dL
  TC: 76 mg/dL
  TG: 90.4 mg/dL
  TP: 5.7 g/dL
  gamma-GTP: 1.2 IU/L
24 h
  TERMINAL_BW: 229.3 g
  APTT: 19.1 s
  Bas: 0.4%
  Eos: 1%
  Fbg: 235.6 mg/dL
  Hb: 13.5 g/dL
  Ht: 39.9%
  Lym: 78.4%
  MCH: 21.2 pg
  MCHC: 33.9%
  MCV: 62.5 fL
  Mono: 3%
  Neu: 16.6%
  PT: 11.9 s
  Plat: 124.7 x10_4/uL
  RBC: 638.2 x10_4/ul
  Ret: 6.6%
  WBC: 79.1 x10_2/uL
  KIDNEY_L: 1 g
  KIDNEY_R: 1 g
  KIDNEY_TOTAL: 2 g
  LIVER: 10.1 g
  A/G: 1.5
  ALP: 877 IU/L
  ALT: 34.8 IU/L
  AST: 64.4 IU/L
  BUN: 14.4 mg/dL
  CRE: 0.4 mg/dL
  Ca: 10.7 mg/dL
  Cl: 104.6 meq/L
  DBIL: 0.086 mg/dL
  GLC: 202.8 mg/dL
  IP: 9.4 mg/dL
  K: 4 meq/L
  LDH: 208.6 IU/L
  Na: 141.6 meq/L
  PL: 142.6 mg/dL
  RALB: 3.3 g/dL
  TBIL: 0.1 mg/dL
  TC: 73.8 mg/dL
  TG: 86.4 mg/dL
  TP: 5.5 g/dL
  gamma-GTP: 1.4 IU/L
